From US8957074B2 (Novartis AG, priority 2010, dated 2015)
Where two headings read alike, the source gives them in different places.

Assays:
[1] = system: phosphorylation of pRb at the Ser780 site in JeKo-1 mantle cell lymphoma cells; assay: CDK4 cellular assay: ELISA of pRb phosphorylation at Ser780 in JeKo-1 cells; format: cell-based
CDK4/cyclin D1 = CDK4/cyclin D1 (Homo sapiens (Human), UniProt P11802); assay: CDK4/cyclin D1 enzymatic activity assay (TR-FRET, phosphorylation of pRb at Ser780); format: biochemical
Chain of CDK4/cyclin D1 (P11802 whole entry): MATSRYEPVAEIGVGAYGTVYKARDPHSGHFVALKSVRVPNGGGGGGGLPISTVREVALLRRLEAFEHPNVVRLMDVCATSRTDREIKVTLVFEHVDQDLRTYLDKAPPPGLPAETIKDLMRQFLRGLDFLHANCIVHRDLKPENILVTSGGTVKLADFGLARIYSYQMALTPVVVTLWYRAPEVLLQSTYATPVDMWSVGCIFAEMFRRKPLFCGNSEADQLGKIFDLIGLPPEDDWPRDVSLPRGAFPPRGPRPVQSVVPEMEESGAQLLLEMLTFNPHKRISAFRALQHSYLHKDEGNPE
Chain of CDK4/cyclin D1 (P24385 whole entry partner): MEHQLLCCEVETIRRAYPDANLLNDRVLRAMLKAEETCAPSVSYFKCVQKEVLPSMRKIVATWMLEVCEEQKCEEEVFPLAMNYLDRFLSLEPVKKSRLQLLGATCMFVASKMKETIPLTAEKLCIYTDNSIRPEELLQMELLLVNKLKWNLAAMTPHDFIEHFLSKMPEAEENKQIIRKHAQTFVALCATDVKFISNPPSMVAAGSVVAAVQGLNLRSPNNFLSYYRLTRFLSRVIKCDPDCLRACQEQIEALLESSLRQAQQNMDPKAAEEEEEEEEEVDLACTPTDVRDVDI
Procedure, shortened: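 Phosphorylation at pRb Ser780, detected by TR-FRET, gave IC50s and kinetics. Enzyme: baculovirus/Sf21-expressed human CDK4/cyclin D1. ATP at 3 μM initiated the reaction; EDTA (pH 8.0) stopped it after 60 min at 22° C.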

CDK1/cyclin B = CDK1/cyclin B (Homo sapiens (Human), UniProt P06493); assay: CDK1/cyclin B enzymatic activity assay (IMAP-FP); format: biochemical; settings: 100 nM Tamra Histone-H1 peptide, 20 μM ATP, 120 min at room temperature, read-out: Biochemical CDK1 enzyme IC50
Chain of CDK1/cyclin B (P06493 whole entry, species assumed): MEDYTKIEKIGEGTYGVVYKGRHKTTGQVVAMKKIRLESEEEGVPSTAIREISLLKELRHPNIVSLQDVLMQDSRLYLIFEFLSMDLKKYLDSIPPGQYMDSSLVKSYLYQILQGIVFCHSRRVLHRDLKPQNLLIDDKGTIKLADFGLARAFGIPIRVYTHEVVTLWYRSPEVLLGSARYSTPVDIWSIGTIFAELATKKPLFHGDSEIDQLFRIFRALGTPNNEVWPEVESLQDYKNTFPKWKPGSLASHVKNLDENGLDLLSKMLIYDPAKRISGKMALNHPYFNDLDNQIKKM
Chain of CDK1/cyclin B (P14635 whole entry partner, species assumed): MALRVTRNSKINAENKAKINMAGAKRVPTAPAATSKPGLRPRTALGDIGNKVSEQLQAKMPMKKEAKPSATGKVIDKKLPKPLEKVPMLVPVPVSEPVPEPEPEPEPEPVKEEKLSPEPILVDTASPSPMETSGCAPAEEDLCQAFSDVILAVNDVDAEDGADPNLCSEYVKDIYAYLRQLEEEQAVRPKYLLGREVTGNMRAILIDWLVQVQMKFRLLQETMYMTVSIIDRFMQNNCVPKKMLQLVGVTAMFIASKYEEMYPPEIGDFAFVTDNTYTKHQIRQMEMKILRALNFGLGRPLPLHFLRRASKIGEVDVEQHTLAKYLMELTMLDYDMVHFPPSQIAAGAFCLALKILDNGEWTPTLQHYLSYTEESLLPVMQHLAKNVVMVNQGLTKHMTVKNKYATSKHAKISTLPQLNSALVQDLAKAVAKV
Description: CDK1/Cyclin B Enzymatic Activity Assay
A 384-well microtiter IMAP-FP™ (Molecular Devices Trade Mark Technology) endpoint assay was used for CDK1/cyclin B kinase activity measurements. The same assay was used for IC50 determination of small molecule inhibitors.

[2] = Homo sapiens, JeKo-1 cells, p-pRb % inhibition adjusted with total pRb levels, read-out: Normalized cellular ppRb inhibition IC50
[3] = Homo sapiens, JeKo-1 cells, p-pRb Ser780 ELISA, non-normalized, read-out: Cellular ppRb inhibition IC50
[4] = 0.3 nM CDK4/cyclin D1, 150 nM biotin-pRb (773-924), 3 μM ATP, 60 min at 22° C., read-out: Biochemical CDK4 enzyme IC50
[5] = Homo sapiens, JeKo-1, JeKo-1 cells, p-pRb % inhibition adjusted with total pRb levels, read-out: Normalized cellular ppRb inhibition IC50
[6] = Homo sapiens, JeKo-1, JeKo-1 cells, p-pRb Ser780 ELISA, non-normalized, read-out: Cellular ppRb inhibition IC50

| SMILES | IC50 (CDK4/cyclin D1; [4]) [nM] | IC50 (CDK1/cyclin B; […] CDK1/cyclin B) [nM] | IC50 [1, 2] [nM] | IC50 [1, 3] [nM] | IC50 [1, 5] [nM] | IC50 [1, 6] [nM] | IC50 (CDK4/cyclin D1) [nM] | IC50 (CDK1/cyclin B; 0.25 nM CDK1/cyclin B) [nM] | IC50 ([1]; JeKo-1 cells, p-pRb % inhibition adjusted with total pRb levels, read-out: Normalized cellular ppRb inhibition IC50) [nM] | IC50 ([1]; JeKo-1 cells, p-pRb Ser780 ELISA, non-normalized, read-out: Cellular ppRb inhibition IC50) [nM] |
| --- | --- | --- | --- | --- | --- | --- | --- | --- | --- | --- |
| CC(=O)N1C2CCC1CN(C(=O)c1ccc(Nc3ncc4cc(C(=O)N(C)C)n(C5CCCC5)c4n3)nc1)C2 [Example 27, 2-(5-(8-acetyl-3,8-diazabicyclo[3.2.1]octane-3-carbonyl)pyridin-2-ylamino)-7-cyclopentyl-N,N-dimethyl-7H-pyrrolo[2,3-d]pyrimidine-6-carboxamide] | 46 | > 15000 | 201 | 194 |  |  |  |  |  |  |
| CN(C)C(=O)c1cc2cnc(Nc3ccc(C(=O)N4CC5CCC(C4)N5CCO)cn3)nc2n1C1CCCC1 [Example 28, 7-cyclopentyl-2-(5-(8-(2-hydroxyethyl)-3,8-diazabicyclo[3.2.1]octane-3-carbonyl)pyridin-2-ylamino)-N,N-dimethyl-7H-pyrrolo[2,3-d]pyrimidine-6-carboxamide] | 22 | > 15000 |  |  | 69 | 63 |  |  |  |  |
| CC(C)N1C2CCC1CN(C(=O)c1ccc(Nc3ncc4cc(C(=O)N(C)C)n(C5CCCC5)c4n3)nc1)C2 [Example 29, 7-cyclopentyl-2-(5-(8-isopropyl-3,8-diazabicyclo[3.2.1]octane-3-carbonyl)pyridin-2-ylamino)-N,N-dimethyl-7H-pyrrolo[2,3-d]pyrimidine-6-carboxamide] | 14 to 17 | > 15000 | 20 to 48 | 24 to 34 |  |  |  |  |  |  |
| CN(C)C(=O)c1cc2cnc(Nc3ccc(C(=O)N4C[C@@H]5C[C@H]4C[C@@H]5O)cn3)nc2n1C1CCCC1 [Example 30, 7-cyclopentyl-2-(5-((1S,4S,5S)-5-hydroxy-2-azabicyclo[2.2.1]heptane-2-carbonyl)pyridin-2-ylamino)-N,N-dimethyl-7H-pyrrolo[2,3-d]pyrimidine-6-carboxamide] | 88 to 114 | > 15000 | 344 to 582 | 422 to 542 |  |  |  |  |  |  |
| CN(C)C(=O)c1cc2cnc(Nc3ccc(C(=O)N4CC5CCC(C4)C5N(C)C)cn3)nc2n1C1CCCC1 (stereo not shown) [Example 34, 7-cyclopentyl-2-(5-(8-(dimethylamino)-3-azabicyclo[3.2.1]octane-3-carbonyl)pyridin-2-ylamino)-N,N-dimethyl-7H-pyrrolo[2,3-d]pyrimidine-6-carboxamide] | 22 | > 15000 | 140 | 75 |  |  |  |  |  |  |
| CC(CO)N1C2CCC1CN(C(=O)c1ccc(Nc3ncc4cc(C(=O)N(C)C)n(C5CCCC5)c4n3)nc1)C2 (stereo not shown) [Example 35, 7-cyclopentyl-2-(5-(8-(1-hydroxypropan-2-yl)-3,8-diazabicyclo[3.2.1]octane-3-carbonyl)pyridin-2-ylamino)-N,N-dimethyl-7H-pyrrolo[2,3-d]pyrimidine-6-carboxamide] | 26 | > 15000 |  |  | 197 | 69 |  |  |  |  |
| CN(C)C(=O)c1cc2cnc(Nc3ccc(C(=O)N4CC5CCC(C4)N5)cn3)nc2n1[C@H]1CC[C@H](C(C)(C)C)CC1 [Example 37, 7-(4-tert-Butyl-cyclohexyl)-2-[5-(3,8-diaza-bicyclo[3.2.1]octane-3-carbonyl)-pyridin-2-ylamino]-7H-pyrrolo[2,3-d]pyrimidine-6-carboxylic acid dimethylamide] |  | > 15000 |  |  | 288 to 438 | 121 to 301 | 5 to 6 |  |  |  |
| CN(C)C(=O)c1cc2cnc(Nc3ccc(C(=O)N4CC5CCC(C4)N5)nn3)nc2n1C1CCCC1 [Example 38, 7-Cyclopentyl-2-[6-(3,8-diaza-bicyclo[3.2.1]octane-3-carbonyl)-pyridazin-3-ylamino]-7H-pyrrolo[2,3-d]pyrimidine-6-carboxylic acid dimethylamide] |  |  |  |  | 139 to 783 | 75 to 259 | 45 to 84 | > 15000 |  |  |
| CN(C)C(=O)c1cc2cnc(Nc3ccc(C(=O)N4[C@@H]5CNC[C@H]4COC5)cn3)nc2n1C1CCCC1 [Example 40, 2-(5-((1R,5S)-3-oxa-7,9-diazabicyclo[3.3.1]nonane-9-carbonyl)pyridin-2-ylamino)-7-cyclopentyl-N,N-dimethyl-7H-pyrrolo[2,3-d]pyrimidine-6-carboxamide] | 36 to 52 | > 15000 | 51 to 222 | 40 to 99 |  |  |  |  |  |  |
| CN(C)C(=O)c1cc2cnc(Nc3ccc(C(=O)N4[C@@H]5CC[C@H]4C[C@H](O)C5)cn3)nc2n1C1CCCC1 [Example 43, 7-Cyclopentyl-2-[5-((1S,3S,5R)-3-hydroxy-8-aza-bicyclo[3.2.1]octane-8-carbonyl)-pyridin-2-ylamino]-7H-pyrrolo[2,3-d]pyrimidine-6-carboxylic acid dimethylamide] | 176 to 198 | > 15000 |  |  |  |  |  |  | 469 to 1280 | 461 to 745 |

Continued, in another order:

| IC50 (CDK4/cyclin D1; [4]) [nM] | IC50 (CDK1/cyclin B; […] CDK1/cyclin B) [nM] | SMILES | IC50 [1, 2] [nM] | IC50 [1, 3] [nM] | IC50 [1, 5] [nM] | IC50 [1, 6] [nM] | IC50 (CDK4/cyclin D1) [nM] | IC50 (CDK1/cyclin B; 0.25 nM CDK1/cyclin B) [nM] | IC50 ([1]; JeKo-1 cells, p-pRb % inhibition adjusted with total pRb levels, read-out: Normalized cellular ppRb inhibition IC50) [nM] | IC50 ([1]; JeKo-1 cells, p-pRb Ser780 ELISA, non-normalized, read-out: Cellular ppRb inhibition IC50) [nM] |
| --- | --- | --- | --- | --- | --- | --- | --- | --- | --- | --- |
| 69 to 81 | > 15000 | CN(C)C(=O)c1cc2cnc(Nc3ccc(C(=O)N4C[C@@H]5C[C@H]4C[C@H]5O)cn3)nc2n1C1CCCC1 [Example 31, 7-cyclopentyl-2-(5-((1S,4S,5R)-5-hydroxy-2-azabicyclo[2.2.1]heptane-2-carbonyl)pyridin-2-ylamino)-N,N-dimethyl-7H-pyrrolo[2,3-d]pyrimidine-6-carboxamide] | 497 to 591 | 252 to 352 |  |  |  |  |  |  |
| 15 to 21 | > 15000 | CN(C)C(=O)c1cc2cnc(Nc3ccc(C(=O)N4CC5CNCC5C4)cn3)nc2n1C1CCCC1 (stereo not shown) [Example 32, 7-cyclopentyl-N,N-dimethyl-2-(5-(octahydropyrrolo[3,4-c]pyrrole-2-carbonyl)pyridin-2-ylamino)-7H-pyrrolo[2,3-d]pyrimidine-6-carboxamide] |  |  | 212 | 131 |  |  |  |  |
| 94 to 144 | > 15000 | CN(C)C(=O)c1cc2cnc(Nc3ccc(C(=O)N4CC5CCC(C4)C5O)cn3)nc2n1C1CCCC1 [Example 33, 7-cyclopentyl-2-(5-((1R,5S,8r)-8-hydroxy-3-azabicyclo[3.2.1]octane-3-carbonyl)pyridin-2-ylamino)-N,N-dimethyl-7H-pyrrolo[2,3-d]pyrimidine-6-carboxamide] | 430 to 1300 | 377 to 919 |  |  |  |  |  |  |
| 77 | > 15000 | CN1CC2(C)CN(C(=O)c3ccc(Nc4ncc5cc(C(=O)N(C)C)n(C6CCCC6)c5n4)nc3)CC(C)(C1)C2O (stereo not shown) [Example 39, 7-Cyclopentyl-2-(5-(9-hydroxy-1,5,7-trimethyl-3,7-diazabicyclo[3.3.1]nonane-3-carbonyl)pyridin-2-ylamino)-N,N-dimethyl-7H-pyrrolo[2,3-d]pyrimidine-6-carboxamide] | 136 | 79 |  |  |  |  |  |  |
| 15 to 17 | > 15000 | CN(C)C(=O)c1cc2cnc(Nc3ccc(C(=O)N4CC5(CNC5)C4)cn3)nc2n1C1CCCC1 [Example 41, 2-(5-(2,6-diazaspiro[3.3]heptane-2-carbonyl)pyridin-2-ylamino)-7-cyclopentyl-N,N-dimethyl-7H-pyrrolo[2,3-d]pyrimidine-6-carboxamide] | 132 to 415 | 112 to 228 |  |  |  |  |  |  |
| 15 | > 15000 | CN(C)C(=O)c1cc2cnc(Nc3ccc(C(=O)N4C[C@@H]5[C@@H](N)[C@@H]5C4)cn3)nc2n1C1CCCC1 [Example 42, 2-[5-((1S,5R,6S)-6-Amino-3-aza-bicyclo[3.1.0]hexane-3-carbonyl)-pyridin-2-ylamino]-7-cyclopentyl-7H-pyrrolo[2,3-d]pyrimidine-6-carboxylic acid dimethylamide] | 241 | 86 |  |  |  |  |  |  |
